# Laboratory results reported in patent US20170172994A1, “COMPOSITIONS AND METHODS FOR TREATING BACTERIAL INFECTIONS” (WOCKHARDT LIMITED, priority 2013, published 2017).
# Where two headings read alike, the source gives them in different places.
# Legend:
# Pseudomonas PBP 1A = target: T1, Pseudomonas PBP 1A (Pseudomonas aeruginosa, UniProt Q07806); assay: PBP binding assay (Bocillin FL competition); settings: Pseudomonas PBP 1A; read-out: IC50 (converted)
# T1 construct: endogenous in cells
# Experimental: (§1) The phrase “selective and high affinity PBP binder” refers to a PBP binder which binds to only one PBP with very high affinity. In general, the term “selective and high affinity PBP binder” also includes those binders where a substantial fraction of binder selectively binds to only one PBP with high affinity. […]. The term “IC50 value” of a compound refers to the concentration of the compound that reduces the binding of Bocillin-FL to PBPs by 50% as compared to when no compound was added to the reaction.
# (§2) A compound of Formula (III) was prepared using the procedure disclosed in PCT International Application No. PCT/IB2012/054290 and was evaluated for its PBP binding affinity profile. […] The reaction mixtures were then denatured with 20 μl each of SDS-denaturing solution at 100° C. for 3 min PBPs were separated through 10% SDS polyacrylamide gel electrophoresis (Bio-Rad Laboratories, Hercules, Calif.). The protein gels were rinsed in water immediately after electrophoresis. […] […].
# Pseudomonas PBP 5/6 = Pseudomonas PBP 5/6 (Pseudomonas aeruginosa, UniProt G3XD74); assay: PBP binding assay (Bocillin FL competition); settings: read-out: IC50
# Sequence of Pseudomonas PBP 5/6 (G3XD74 entry or part of it): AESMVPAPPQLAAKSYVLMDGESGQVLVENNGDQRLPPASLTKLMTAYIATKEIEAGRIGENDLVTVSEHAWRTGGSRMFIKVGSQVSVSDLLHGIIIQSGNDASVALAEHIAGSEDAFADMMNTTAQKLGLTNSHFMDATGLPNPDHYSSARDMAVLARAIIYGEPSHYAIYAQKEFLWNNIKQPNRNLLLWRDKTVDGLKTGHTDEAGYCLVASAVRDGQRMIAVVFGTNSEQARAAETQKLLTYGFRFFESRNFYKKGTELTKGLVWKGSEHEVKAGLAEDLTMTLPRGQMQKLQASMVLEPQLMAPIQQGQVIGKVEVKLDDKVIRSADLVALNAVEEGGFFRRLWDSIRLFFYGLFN
# Experimental: as §1, §2
# [1] = system: MDR P. mirabilis G 186 producing NDM & TEM β-lactamases; assay: Time kill study at MFC and MSC; type: cell-based; settings: for Bacterial count: Cefepime 8 mcg/ml (MFC), Compound of Formula (III) 0.25 mcg/ml (MSC), Imepenem 8 mcg/ml
# Experimental: (§3) The synergistic killing effect of the combinations according to invention was studied by performing time kill studies. In a typical time kill study, the freshly grown cultures were diluted to the required cell density (initial starting inoculum) in Cation adjusted Muller Hinton broth medium (BD, USA). The antibacterial agents (either alone or in combination) at the required concentrations were added into the culture-containing medium. The samples were incubated under shaking condition (120 rpm) at 37° C. Enumeration of viable bacterial count was done every 2 hour by diluting in normal saline and plating on to the Tryptic Soya Agar plates (BD, USA). The plates were incubated for 24 hours to arrive at the viable bacterial count. The results are expressed in terms of Log CFU per ml. In general, the decrease of 1 Log CFU/ml, corresponds to 90% killing of bacteria. Similarly, 2 Log CFU/ml reductions indicates to 99% killing of bacteria and 3 Log CFU/ml reductions is equal to 99.9% killing of bacteria.
# [2] = system: MDR Klebsiella pneumoniae B 88 producing NDM, SHV & TEM beta-lactamases; assay: Time kill study at MFC and MSC; type: cell-based; settings: for Bacterial count: Cefepime 8 mcg/ml (MFC), Compound of Formula (III) 0.12 mcg/ml (MSC), Imepenem 8 mcg/ml
# Experimental: as §3
# [3] = system: K. pneumonia S48 expressing multiple ESBLs including MBL (NDM4) and Class A (CTX-M, SHV, TEM); type: cell-based, K. pneumoniae; settings: Cefepime 8 μg/ml, Compound of Formula (III) 2 μg/ml, Clavulanic acid 2 μg/ml, Mecillinam 2 μg/ml, Imipenem 8 μg/ml
# Experimental: Log phase cultures were diluted to desired inoculums in flasks with MHB, containing various drug concentrations. Flasks were incubated at 35° C. in orbital shaker with rotational speed of 125 rpm. […] Plates were incubated for 24 hours at 35° C. and colonies were enumerated to determine the colony forming units (CFU) per ml volume.
# Pseudomonas PBP 3 = target: T2, Pseudomonas PBP 3 (Pseudomonas aeruginosa, UniProt G3XD46); assay: biochemical; type: binding
# T2 construct: endogenous in cells
# T2 sequence (G3XD46 whole entry): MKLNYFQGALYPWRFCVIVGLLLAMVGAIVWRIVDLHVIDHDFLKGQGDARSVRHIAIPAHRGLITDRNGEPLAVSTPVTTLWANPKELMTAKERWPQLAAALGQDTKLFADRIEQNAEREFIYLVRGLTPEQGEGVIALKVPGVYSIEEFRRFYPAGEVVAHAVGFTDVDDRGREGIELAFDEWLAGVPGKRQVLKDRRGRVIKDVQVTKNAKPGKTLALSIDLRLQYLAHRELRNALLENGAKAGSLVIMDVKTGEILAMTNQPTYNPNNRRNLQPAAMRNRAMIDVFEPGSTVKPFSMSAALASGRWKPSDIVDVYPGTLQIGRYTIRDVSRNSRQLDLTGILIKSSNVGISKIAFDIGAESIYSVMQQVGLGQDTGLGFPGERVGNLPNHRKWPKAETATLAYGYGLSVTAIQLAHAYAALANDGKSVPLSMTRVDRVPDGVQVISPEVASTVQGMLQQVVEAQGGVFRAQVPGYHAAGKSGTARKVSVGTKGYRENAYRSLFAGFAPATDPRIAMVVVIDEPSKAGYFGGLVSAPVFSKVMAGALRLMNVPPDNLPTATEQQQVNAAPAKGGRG
# Experimental: The phrase “selective and high affinity PBP binder” refers to a PBP binder which binds to only one PBP with very high affinity. In general, the term “selective and high affinity PBP binder” also includes those binders where a substantial fraction of binder selectively binds to only one PBP with high affinity.
# The reaction mixtures were then denatured with 20 μl each of SDS-denaturing solution at 100° C. for 3 min PBPs were separated through 10% SDS polyacrylamide gel electrophoresis (Bio-Rad Laboratories, Hercules, Calif.). The protein gels were rinsed in water immediately after electrophoresis.
# P. mirabilis G 186 = assay: Minimum filamentation / spheroplasting concentration; settings: P. mirabilis G 186 (NDM, TEM); minimum spheroplasting concentration
# Excerpt: The term “MSC” as used herein refers to minimum spheroplasting concentration, which is the minimum concentration of an antibacterial agent at which about 80% of bacterial cells covert into spheroplasts.
# The term “MFC” as used herein refers to minimum filamentation concentration, which is the minimum concentration of an antibacterial agent at which about 80% of bacterial cells get elongated to form filament like structures.
# T1 sequence (Q07806 whole entry): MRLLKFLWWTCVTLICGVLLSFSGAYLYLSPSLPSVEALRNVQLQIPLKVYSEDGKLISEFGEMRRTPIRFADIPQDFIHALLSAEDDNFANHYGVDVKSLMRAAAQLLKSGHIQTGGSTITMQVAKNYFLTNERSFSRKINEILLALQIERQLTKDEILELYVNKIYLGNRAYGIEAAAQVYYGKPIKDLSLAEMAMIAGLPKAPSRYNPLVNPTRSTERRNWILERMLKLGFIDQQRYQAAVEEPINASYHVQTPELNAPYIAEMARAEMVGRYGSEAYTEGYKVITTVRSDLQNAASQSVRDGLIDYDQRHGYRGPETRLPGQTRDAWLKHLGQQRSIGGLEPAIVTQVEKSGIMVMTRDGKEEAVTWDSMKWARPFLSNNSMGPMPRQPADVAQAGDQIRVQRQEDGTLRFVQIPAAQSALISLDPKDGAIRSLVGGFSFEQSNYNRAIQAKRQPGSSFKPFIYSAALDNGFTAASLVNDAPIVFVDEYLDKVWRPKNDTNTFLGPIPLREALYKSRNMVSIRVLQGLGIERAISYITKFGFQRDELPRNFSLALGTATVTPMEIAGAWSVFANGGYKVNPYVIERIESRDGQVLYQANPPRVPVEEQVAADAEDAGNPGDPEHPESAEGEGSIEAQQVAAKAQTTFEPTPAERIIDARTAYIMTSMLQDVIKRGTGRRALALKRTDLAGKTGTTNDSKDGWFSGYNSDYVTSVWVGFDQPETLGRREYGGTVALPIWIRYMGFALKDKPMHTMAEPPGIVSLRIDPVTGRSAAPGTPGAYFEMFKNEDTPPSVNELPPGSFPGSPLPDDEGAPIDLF
compound,measurement,setting,value
"O=C(NNC(=O)[C@@H]1CC[C@@H]2CN1C(=O)N2OS(=O)(=O)O)[C@@H]1CCCNC1 [Compound of Formula (III), trans-(2S,5R)-sulfuric acid mono-[2-(N′—[(R)-piperidin-3-carbonyl]-hydrazino Carbonyl)-7-oxo-1,6-diaza-bicyclo[3.2.1]oct-6-yl] Ester]",IC50,Pseudomonas PBP 1A,> 10.2 µM
same,IC50,Pseudomonas PBP 5/6,> 10.2 µM
same,Bacterial count,[1]; 0 hour,6.58 Log10 CFU/ml
same,Bacterial count,[1]; 2 hours,7.2 Log10 CFU/ml
same,Bacterial count,[1]; 4 hours,7.7 Log10 CFU/ml
same,Bacterial count,[1]; 6 hours,8.43 Log10 CFU/ml
same,Bacterial count,[1]; 8 hours,8.6 Log10 CFU/ml
same,Antibacterial activity (in words),"[1]; P. mirabilis G 186, at MFC and MSC concentration, Table 14",did not exhibit antibacterial activity
same,Bacterial count,[2]; 0 hour,6.14 Log10 CFU/ml
same,Bacterial count,[2]; 2 hours,7.3 Log10 CFU/ml
same,Bacterial count,[2]; 4 hours,7.8 Log10 CFU/ml
same,Bacterial count,[2]; 6 hours,7.9 Log10 CFU/ml
same,Bacterial count,[2]; 8 hours,8.5 Log10 CFU/ml
same,Antibacterial activity (in words),"[2]; Klebsiella pneumoniae B 88, at MFC and MSC concentration, Table 13",did not exhibit antibacterial activity
same,Bacterial count,[3]; 0 hour,5.5 log (CFU/ml)
same,Bacterial count,[3]; 2 hours,5.4 log (CFU/ml)
same,Bacterial count,[3]; 4 hours,3.5 log (CFU/ml)
same,Bacterial count,[3]; 6 hours,3.6 log (CFU/ml)
same,IC50,Pseudomonas PBP 3,> 10.2 µM
same,MSC,P. mirabilis G 186,0.25 µg/mL
